Measured values taken from patent publication US20170296616A1, “METHODS OF TREATING DEPRESSION USING NMDA MODULATORS” (Naurex, Inc., priority 2014, published 2017).
Residues, ends and D or L forms follow the SMILES beside them.

Experiments:
[1] = system: patients suffering with refractory depression; settings: cited from earlier work; for change in Hamilton Depression Rating Score: patients with refractory depression; for side effects: reported for the NMDAR antagonists
[2] = system: long-term potentiation (LTP); assay: Long-term potentiation (LTP) after single or multiple bi-weekly doses (FIG. 3)
[3] = system: subjects with MDD that had responded inadequately to another antidepressant agent; assay: Repeat dose study of adjunctive GLYX-13 in human subjects (randomized withdrawal design); format: in vivo; settings: for reduction of CGI-I score: baseline 4.3-4.6
Description: A repeat dose study was conducted on human subjects using adjunctive dosing (patients were currently taking another antidepressant medication). Dose levels of 5 mg/kg and 10 mg/kg were used with weekly or biweekly dose during an initial, stabilization period, as shown in FIGS. 7A and 7B (showing typical design of randomized withdrawal maintenance study). The disposition of the subjects, as indicated in FIGS. 7A and 7B was 144 nonresponders and […], where of the responders (70 patients assigned to weekly dosing, 36 patients assigned to biweekly dosing, 55 patients randomized to placebo). […] The study was blinded to third party raters (HDRS-17) and to clinicians of the treatment group (CGI-S).
Methods. GLYX-13 was administered over 12 weeks to subjects who had responded inadequately to another antidepressant agent. Subjects continued taking the other antidepressant during the entire course of the study. The study was divided into 3 parts. During the first 6 weeks, subjects were randomized to receive GLYX-13 at 5 mg/kg IV or 10 mg/kg IV. Subjects returned to the clinic weekly. If subjects had reached clinical response (HDRS-17 reduced ≧50% from baseline) to GLYX-13 administered the previous week, placebo was administered weekly until relapse (HDRS-17 reduced <50% from baseline). At the 6th week of evaluation, subjects who had achieved response to GLYX-13 at some visit were assigned to weekly or biweekly dosing based on time to relapse during placebo administration and randomized to continue receiving GLYX-13 or placebo (randomized withdrawal) for a subsequent 6 weeks of dosing. At the end of the randomized withdrawal period, subjects received placebo injections for 4 weeks. Subjects were blind to the treatments. Third party evaluators blind to treatment and protocol were utilized. Treatment dose and interval were calculated by an interactive web-based response system based on a mathematical algorithm; site personnel were blinded to treatment.

[4] = cited from earlier work
[5] = end of randomized withdrawal period, biweekly doses

CNC1(c2ccccc2Cl)CCCCC1=O (stereo not drawn) [ketamine]
change in Hamilton Depression Rating Score [1]: significant reductions
side effects [1]: reportedly severe

C[C@@H](O)[C@H](N)C(=O)N1CCC[C@H]1C(=O)N1CCC[C@H]1C(=O)N[C@H](C(N)=O)[C@@H](C)O [GLYX-13] (H-TPPT-NH2)
effect on long-term potentiation (LTP) ([2]; 24 hours and one week following a single dose): enhances long-term potentiation
effect on long-term potentiation (LTP) ([2]; following multiple bi-weekly doses): persistently enhances LTP
improvements on HDRS scale during the rest period (randomized withdrawal) ([3]; FIG. 1, compared with the induction (stabilization) period): generally maintained
improvements on Bech-6 scale during the rest period (randomized withdrawal) ([3]; FIG. 4, compared with the induction (stabilization) period): generally maintained
improvements on CGI-S scale during the rest period ([3]; FIG. 5, Week 7 and Week 13): generally maintained
subjects that relapsed more slowly ([3]; assigned to biweekly dosing in the randomized withdrawal period): 33%
responders that relapsed within 2 weeks following cessation of GLYX-13 ([3]; assigned to weekly dosing in the randomized withdrawal period): Approximately 67%
responders that relapsed quickly during early treatment ([3]; early treatment): About two-thirds
responders that relapsed slowly, even during early treatment ([3]; early treatment): About one-third
reduction of CGI-I score ([3]; end of randomized withdrawal period, 5 mg/kg IV weekly dose group): 2.5 ± 0.14
percent of subjects that achieved remission ([3]; end of randomized withdrawal period, 5 mg/kg weekly group vs biweekly dose groups): not statistically different from the biweekly dose groups
reduction of CGI-I score ([3]; end of randomized withdrawal period, 10 mg/kg IV group): 1.6±0.15
subjects that reached remission (HDRS score <=7) ([3]; end of randomized withdrawal period, 10 mg/kg weekly): 42%
subjects that achieved remission (HDRS score <=7) [3, 5]: 45%
subjects that achieved response [3, 5]: 65%
reduction of CGI-I score ([3]; end of randomized withdrawal period, biweekly groups): 2.5±0.12
HDRS-17 score in responders ([3]; following 6 weeks of dosing, baseline 23.5±0.34, mean±S.E.M.): 10.3±0.65
time after withdrawal of GLYX-13 without return of HDRS-17 score toward baseline ([3]; following 6 weeks of dosing, placebo thereafter): up to 10 weeks
efficacy following forced relapse ([3]; repeated crossover GLYX-13 / placebo (FIG. 6)): Efficacy was reestablished following forced relapse
side effects with repeated dosing ([3]; repeated dosing): without significant side effect
tolerance with repeated dosing ([3]; repeated dosing): no tolerance apparent
ultimate responders that showed response after one dose ([3]; stabilization phase, 5 or 10 mg/kg, after one dose): ~65%
ultimate responders that showed response after three doses ([3]; stabilization phase, after three doses): ~85%
ultimate responders that showed response after two doses ([3]; stabilization phase, after two doses): ~72%
psychotomimetic side effects ([4]; compared with other drugs that target the NMDA receptor): lack the pyschotomimetic side effects
antidepressant activity ([4]; in vivo): rapid-acting, robust, and sustained antidepressant activity

C[C@@H]([C@@H](O)c1ccc(O)cc1)N1CCC(O)(c2ccccc2)CC1 [CPC-101,606]
change in Hamilton Depression Rating Score [1]: significant reductions
side effects [1]: reportedly severe
